Holding throughout (type): functional
For assay [1], the system named is Plasmodium berghei. Nature of the assay: In vivo activity after 13 days against chloroquine-sensitive Plasmodium berghei infected mice (Mus musculus) at 100 mg/kg intraperitoneal dose over 4 days.
In assay [2] the test system is Plasmodium berghei. Nature of the assay: Parasitaemia at day 11 after combination dose at 50 mg/kg/day with 15 mg/kg/day […] over 4 days.
Assay [3] concerns Plasmodium berghei. Nature of the assay: Parasitemia at day 13 after combination dose at 50 mg/kg/day with 15 mg/kg/day […] over 4 days.
Assay [4] deals with Plasmodium berghei. As to the kind of experiment: Parasitaemia at day 15 after combination dose at 50 mg/kg/day with 15 mg/kg/day […] over 4 days.
The subject of assay [5] is Plasmodium berghei. As to the kind of experiment: Parasitaemia at day 17 after combination dose at 50 mg/kg/day with 15 mg/kg/day […] over 4 days.
Assay [6] concerns Plasmodium berghei. Nature of the assay: Parasitemia at day 5 after combination dose at 50 mg/kg/day with 15 mg/kg/day […] over 4 days.
Assay [7] concerns Plasmodium berghei. As to the kind of experiment: Parasitaemia at day 7 after combination dose at 50 mg/kg/day with 15 mg/kg/day […] over 4 days.
The test system of assay [8] is Plasmodium berghei. Nature of the assay: Parasitaemia at day 9 after combination dose at 50 mg/kg/day with 15 mg/kg/day […] over 4 days.
Assay [9] concerns Plasmodium berghei. Nature of the assay: Parasitaemia at day 11 after 50 mg/kg/day dose over 4 days.
The subject of assay [10] is Plasmodium berghei. As to the kind of experiment: Parasitaemia at day 13 after 50 mg/kg/day dose over 4 days.
The test system of assay [11] is Plasmodium berghei. Nature of the assay: Parasitaemia at day 5 after 50 mg/kg/day dose over 4 days.
Assay [12] has as its system Plasmodium berghei. As to the kind of experiment: Parasitemia at day 7 after 50 mg/kg/day dose over 4 days.
Assay [13] has as its system Plasmodium berghei. Nature of the assay: Parasitemia at day 9 after 50 mg/kg/day dose over 4 days.
Assay [14] has as its system Plasmodium berghei. Nature of the assay: In vivo activity after 11 days against chloroquine-sensitive Plasmodium berghei infected mice (Mus musculus) at 100 mg/kg intraperitoneal dose over 4 days.
Assay [15] has as its system Plasmodium berghei. Nature of the assay: In vivo activity at day 5 against chloroquine-sensitive Plasmodium berghei infected mice (Mus musculus) at 100 mg/kg intraperitoneal dose over 4 days.
Assay [16] has as its system Plasmodium berghei. Nature of the assay: In vivo activity at day 7 against chloroquine-sensitive Plasmodium berghei infected mice (Mus musculus) at 100 mg/kg intraperitoneal dose over 4 days.
For assay [17], the system named is Plasmodium berghei. As to the kind of experiment: In vivo activity at day 9 against chloroquine-sensitive Plasmodium berghei infected mice (Mus musculus) at 100 mg/kg intraperitoneal dose over 4 days.
The test system of assay [18] is Plasmodium berghei. As to the kind of experiment: In vivo activity after 15 days against chloroquine-sensitive Plasmodium berghei infected mice (Mus musculus) at 100 mg/kg intraperitoneal dose over 4 days.
In assay [19] the test system is Plasmodium berghei. As to the kind of experiment: Parasitemia at day 15 after 50 mg/kg/day dose over 4 days.
The test system of assay [20] is Plasmodium berghei. Nature of the assay: Parasitemia at day 17 after 50 mg/kg/day dose over 4 days.

Consider `COc1ccc(/C=C/C(=O)c2ccc(OCCCOc3ccc(C(=O)/C=C/c4ccc(OC)c(OC)c4)cc3)cc2)cc1OC`, for which the Parasitaemia in the assay on Plasmodium berghei [1] is on record as 1.5%; in the assay on Plasmodium berghei [2], 7.6%; in the assay on Plasmodium berghei [3], 12.2%; in the assay with Plasmodium berghei [4], 18%; with Plasmodium berghei [5], 24%; with Plasmodium berghei [6] it was 0%. In addition, the Parasitaemia with Plasmodium berghei [7] is listed as 1.3%; in the assay with Plasmodium berghei [8] it was 1.9%; in the assay with Plasmodium berghei [9] it was 5%; in the assay on Plasmodium berghei [10], 10.4%; in the assay with Plasmodium berghei [11] it was 0.74%; in the assay on Plasmodium berghei [12], 2.4%. In addition, the Parasitaemia is on record as 2% in the assay with Plasmodium berghei [13]; 0.9% with Plasmodium berghei [14]; 0.01% with Plasmodium berghei [15]; 0.05% in the assay with Plasmodium berghei [16]; 0.6% in the assay on Plasmodium berghei [17]; 3% in the assay on Plasmodium berghei [18].
Regarding `CC(=O)c1ccc(OCCCOc2ccc(C(=O)/C=C/c3ccc4c(c3)OCO4)cc2)cc1`, the Parasitaemia in the assay with Plasmodium berghei [1] was found to be 3%; in the assay on Plasmodium berghei [2], 3%; in the assay with Plasmodium berghei [3] it was 5.1%; in the assay with Plasmodium berghei [4], 7%; in the assay with Plasmodium berghei [5] it was 13%; in the assay with Plasmodium berghei [6], 0%. In addition, the Parasitaemia was 0.04% in the assay on Plasmodium berghei [7]; 1.96% in the assay on Plasmodium berghei [8]; 6.7% with Plasmodium berghei [9]; 7.8% in the assay with Plasmodium berghei [10]; 0.7% in the assay with Plasmodium berghei [11]; 1.8% in the assay on Plasmodium berghei [12]. Further, the Parasitaemia in the assay on Plasmodium berghei [13] came out at 2.2%; in the assay on Plasmodium berghei [14] it was 2.75%; in the assay with Plasmodium berghei [15], 0%; in the assay with Plasmodium berghei [16], 0.35%; in the assay with Plasmodium berghei [17], 1.7%; with Plasmodium berghei [19], 11.5%. The molecule also had a Parasitaemia in the assay on Plasmodium berghei [18] of 3.85%.
Regarding `COc1cccc(/C=C/C(=O)c2ccc(OCCCCOc3ccc(C(=O)/C=C/c4cccc(OC)c4)cc3)cc2)c1`, the Parasitaemia is on record as 19% in the assay on Plasmodium berghei [1]; 5% in the assay on Plasmodium berghei [2]; 7.5% with Plasmodium berghei [3]; 10% in the assay with Plasmodium berghei [4]; 16% with Plasmodium berghei [5]; 0.8% in the assay on Plasmodium berghei [6]. Besides, the Parasitaemia with Plasmodium berghei [7] turned out to be 3.2%; in the assay on Plasmodium berghei [8], 2.9%; in the assay with Plasmodium berghei [9], 6.6%; in the assay on Plasmodium berghei [10], 10.8%; in the assay on Plasmodium berghei [11], 1.9%; in the assay on Plasmodium berghei [12] it was 2.1%. The Parasitaemia with Plasmodium berghei [13] was 5.7%; in the assay on Plasmodium berghei [14], 6.4%; in the assay with Plasmodium berghei [15] it was 1.5%; with Plasmodium berghei [16], 2%; with Plasmodium berghei [17], 3.9%; in the assay with Plasmodium berghei [19], 13.3%.
For the molecule `COc1ccc(/C=C/C(=O)c2ccc(OCCCCOc3ccc(C(=O)/C=C/c4ccc(OC)c(OC)c4)cc3)cc2)cc1OC`, the Parasitaemia was determined as 1.5% in the assay on Plasmodium berghei [1]; 2.7% with Plasmodium berghei [2]; 7.5% in the assay with Plasmodium berghei [3]; 0.002% with Plasmodium berghei [6]; 0.3% in the assay with Plasmodium berghei [7]; 1.8% with Plasmodium berghei [8]. The Parasitaemia in the assay on Plasmodium berghei [9] is on record as 5%; in the assay on Plasmodium berghei [10] it was 6.9%; with Plasmodium berghei [11], 1.2%; with Plasmodium berghei [12] it was 2.5%; in the assay on Plasmodium berghei [13], 2.5%; in the assay on Plasmodium berghei [14] it was 1%. In addition, the Parasitaemia in the assay on Plasmodium berghei [15] is reported as 0%; with Plasmodium berghei [16], 0%; in the assay on Plasmodium berghei [17], 0.7%; with Plasmodium berghei [19], 13.2%; in the assay on Plasmodium berghei [18], 2%.
Regarding `COc1ccc(/C=C/C(=O)c2ccc(OCCCCCCOc3ccc(C(=O)/C=C/c4ccc(OC)c(OC)c4)cc3)cc2)cc1OC`, the Parasitaemia in the assay with Plasmodium berghei [1] amounted to 3.1%; in the assay on Plasmodium berghei [2], 2.3%; with Plasmodium berghei [3], 6%; in the assay on Plasmodium berghei [4], 7.5%; with Plasmodium berghei [5], 11%; with Plasmodium berghei [6], 0%. For the same molecule, the Parasitaemia with Plasmodium berghei [7] was 0.06%; in the assay with Plasmodium berghei [8], 1.8%; in the assay with Plasmodium berghei [9], 4.3%; in the assay on Plasmodium berghei [10] it was 7.3%; in the assay on Plasmodium berghei [11], 0.8%; with Plasmodium berghei [12], 1.6%. The Parasitaemia is recorded as 2% in the assay on Plasmodium berghei [13]; 2.1% in the assay with Plasmodium berghei [14]; 0% in the assay on Plasmodium berghei [15]; 0.16% in the assay with Plasmodium berghei [16]; 1.3% with Plasmodium berghei [17]; 15% with Plasmodium berghei [19]. Further, the Parasitaemia in the assay with Plasmodium berghei [18] is reported as 4.25%.
For `COc1ccc(/C=C/C(=O)c2ccc(OCOc3ccc(C(=O)/C=C/c4ccc(OC)cc4OC)cc3)cc2)c(OC)c1`, the results for the Parasitaemia with Plasmodium berghei [15], in the assay on Plasmodium berghei [16] and with Plasmodium berghei [17] were 3.4%, 5% and 2%, respectively.
Consider `COc1ccc(/C=C/C(=O)c2ccc(OCCCOc3ccc(C(=O)/C=C/c4ccc(OC)cc4OC)cc3)cc2)c(OC)c1`, for which the Parasitaemia with Plasmodium berghei [2] is recorded as 7.7%; in the assay with Plasmodium berghei [3] it was 9.5%; with Plasmodium berghei [4], 13.7%; with Plasmodium berghei [5] it was 18%; with Plasmodium berghei [6] it was 1.2%; in the assay on Plasmodium berghei [7], 2.3%. Further, the Parasitaemia came out at 3.76% with Plasmodium berghei [8]; 8.4% with Plasmodium berghei [9]; 10% in the assay on Plasmodium berghei [10]; 16% in the assay on Plasmodium berghei [20]; 1.3% in the assay with Plasmodium berghei [11]; 2.2% in the assay on Plasmodium berghei [12]. Besides, the Parasitaemia in the assay on Plasmodium berghei [13] is reported as 4.8%; with Plasmodium berghei [15] it was 3.2%; in the assay with Plasmodium berghei [16], 4.7%; with Plasmodium berghei [17], 8%; with Plasmodium berghei [19] it was 12.5%.
Turning to `CC(=O)c1ccc(OCCCCCCOc2ccc(C(=O)/C=C/c3ccc4c(c3)OCO4)cc2)cc1`, the Parasitaemia was 3.2% with Plasmodium berghei [2]; 5.5% in the assay on Plasmodium berghei [3]; 8% in the assay on Plasmodium berghei [4]; 0.02% in the assay on Plasmodium berghei [6]; 2% in the assay on Plasmodium berghei [7]; 3.2% in the assay on Plasmodium berghei [8]. Also, the Parasitaemia in the assay with Plasmodium berghei [9] is 6.5%; with Plasmodium berghei [10] it was 9%; in the assay with Plasmodium berghei [11], 2.2%; with Plasmodium berghei [12] it was 3.2%; in the assay with Plasmodium berghei [13], 4.8%; with Plasmodium berghei [14] it was 6.3%. The Parasitaemia in the assay on Plasmodium berghei [15] is on record as 1%; in the assay on Plasmodium berghei [16] it was 2.1%; in the assay with Plasmodium berghei [17], 4%; in the assay on Plasmodium berghei [19], 10%.
For `COc1cccc(/C=C/C(=O)c2ccc(OCCCCCCOc3ccc(C(=O)/C=C/c4cccc(OC)c4)cc3)cc2)c1`, the Parasitaemia is reported as 2% in the assay on Plasmodium berghei [2]; 3.6% with Plasmodium berghei [3]; 6.6% in the assay on Plasmodium berghei [4]; 11.5% in the assay with Plasmodium berghei [5]; 0% in the assay on Plasmodium berghei [6]; 0% in the assay on Plasmodium berghei [7]. Further, the Parasitaemia in the assay on Plasmodium berghei [8] came to 0.14%; with Plasmodium berghei [9] it was 9.5%; in the assay on Plasmodium berghei [10] it was 13%; in the assay on Plasmodium berghei [11], 1.8%; in the assay with Plasmodium berghei [12], 3.2%; with Plasmodium berghei [13], 7.9%. Moreover, the Parasitaemia amounted to 11% in the assay on Plasmodium berghei [14], 2.1% in the assay on Plasmodium berghei [15], 3.4% in the assay on Plasmodium berghei [16] and 6.8% in the assay with Plasmodium berghei [17].
As for `COc1ccc(/C=C/C(=O)c2ccc(OCCCCOc3ccc(C(=O)/C=C/c4ccc(OC)cc4OC)cc3)cc2)c(OC)c1`, the Parasitaemia in the assay with Plasmodium berghei [1] was 6.6%; with Plasmodium berghei [2] it was 4.9%; with Plasmodium berghei [3], 7.5%; in the assay with Plasmodium berghei [4], 13%; in the assay on Plasmodium berghei [5], 18%; with Plasmodium berghei [6], 0.2%. Moreover, the Parasitaemia in the assay with Plasmodium berghei [7] is 0.6%; with Plasmodium berghei [8] it was 4%; in the assay with Plasmodium berghei [9], 8%; in the assay on Plasmodium berghei [10] it was 7.2%; with Plasmodium berghei [11], 2.6%; in the assay with Plasmodium berghei [12] it was 3.5%. In addition, the Parasitaemia in the assay on Plasmodium berghei [13] is given as 3.4%; with Plasmodium berghei [14], 5.2%; in the assay on Plasmodium berghei [15], 1.5%; in the assay with Plasmodium berghei [16], 2%; with Plasmodium berghei [17] it was 2.4%; with Plasmodium berghei [19], 8.3%. The molecule also displayed a Parasitaemia in the assay on Plasmodium berghei [18] of 9.5%.

For the origin of these results see ChEMBL document CHEMBL1132737, “Oxygenated chalcones and bischalcones as potential antimalarial agents” (2000).
